Read-outs that look alike come from different tables or passages of the source.
How the values were obtained:
[1] = biological target: T1, mouse MUPII (mMUPII), Genbank AJ309921, Uniprot P11589, SEQ ID NO: 5, recombinant (Mus musculus, UniProt P11589); assay: 1-AMA fluorescence binding assay, mouse MUPII
T1 construct: no tag mentioned
T1 sequence (P11589 19-180): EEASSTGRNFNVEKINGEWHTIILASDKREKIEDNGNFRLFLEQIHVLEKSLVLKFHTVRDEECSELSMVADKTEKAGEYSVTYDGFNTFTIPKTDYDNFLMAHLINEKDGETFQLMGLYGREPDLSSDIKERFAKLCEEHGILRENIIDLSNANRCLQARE
Description: (§1) The excitation wavelength of 290 nm was used and fluorescence emission intensities were monitored at 504 nm, 483 nm and 486 nm for rat OBP1F, piglet OBP and mouse MUPII respectively.
(§2) cDNA sequence encoding mature piglet OBP (Genbank AF436848) and the mouse MUPII (Genbank AJ309921) were designed for heterologous expression in the methylotrophic yeast P. pastoris as follows: at the 5′ end of coding sequences, native signal peptide sequences were removed and replaced with XhoI (CTC GAG ([SEQ ID NO: 1]) and prepro sequence of the S. cerevisiae α-mating factor (AAA AGA [SEQ ID NO:2]). A stop codon and an EcoRI restriction site were added at the 3′ terminus. The sequences were then optimized for G+C content and preferred codon usage in P. pastoris. Modified coding sequences were synthesized and cloned in frame with the α-mating factor secretion signal into the pPIC9 expression vector between the XhoI and EcoRI sites (GenScript Corp., Piscataway, N.J.). Further information about the protein sequences is provided below:
3. mouse MUPII (MUPIIa Genbank AJ309921, MUP BL1 gene, Uniprot ID P11589)
(§3) Fluorescence ligand binding experiments were performed on a Photon Technology International (London, Canada) Quanta Master Model QM2001 fluorometer at room temperature (19-20° C.), using 1 cm light path quartz cuvettes (Hellma). Slit width of 2 nm was used for excitation and emission for assaying a proteins except ratOBP1F, for which excitation and emission slit width of 6 nm was used.
(§4) Binding curves with 1-AMA were obtained by titrating protein (2 μM) in 50 mM sodium phosphate, pH 7.2 with ligand (0-50 uM, prepared gravimetrically as a 1 mM stock solution in 10% v/v methanol). To examine dependence of binding on pH, fluorescence spectra was measured in 50 mM citrate phosphate solutions at pH 3.0, 4.0 and 5.0. Fluorescence of 1-AMA was excited at 290 nm and emission was scanned from 450 to 550 nm.
(§5) Dissociation constants were calculated from a plot of fluorescence intensity against total ligand concentration fitted with non linear regression using Prism 3.02 (GraphPad Software Inc., La Jolla, Calif.).

rat OBP-1F = details: 1-AMA; Briand et al. 2000 (21); cited from earlier work
[2] = biological target: adult porcine OBP isoform; details: 1-AMA; Paolini et al. 1999 (26), Ramoni et al. 2007 (27); cited from earlier work
[3] = biological target: T2, rat OBP1F (rat OBP variant 1F), recombinant (Rattus norvegicus, UniProt P08937); assay: 1-AMA fluorescence binding assay, rat OBP-1F
T2 construct: made in house; host or cells: Pichia pastoris (vector pPIC9; recombinant strain provided by J.-C; Pernollet, INRA)
T2 sequence (P08937 16-172): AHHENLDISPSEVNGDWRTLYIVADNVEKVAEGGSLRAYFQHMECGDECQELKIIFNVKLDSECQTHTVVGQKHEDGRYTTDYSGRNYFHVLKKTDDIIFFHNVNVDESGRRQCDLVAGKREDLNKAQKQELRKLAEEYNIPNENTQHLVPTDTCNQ
Procedure: as §1, §3, §4, §5

[4] = biological target: T3, piglet OBP (pIOBP), Genbank AF436848, Uniprot Q8WMH1-1, SEQ ID NO: 3 (codon optimized) / SEQ ID NO: 4 (non-optimized), recombinant (Sus scrofa, UniProt P81245); assay: 1-AMA fluorescence binding assay, piglet OBP; parameters: species or system pig (piglet/prepubertal)
T3 construct: S. cerevisiae alpha-mating factor secretion signal (pPIC9) (N); made in house; host or cells: Pichia pastoris GS115 (vector pPIC9)
T3 sequence (P81245 with tags, fused parts or gaps): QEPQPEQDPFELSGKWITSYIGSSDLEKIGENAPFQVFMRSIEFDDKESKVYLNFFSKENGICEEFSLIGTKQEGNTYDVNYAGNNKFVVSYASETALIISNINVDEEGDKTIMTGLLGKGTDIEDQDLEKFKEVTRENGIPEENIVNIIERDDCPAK
Description: as §1, §2
Uniprot ID Q8WMH1-1, Genbank AF436848. *chain comprises 158 residues *differs from adult isoform/variant by an additional lysine residue at the C terminal end. Tissue source for cloning and binding: vomeronasal organ, but the isomer is also found in both vomeronasal and nasal mucosa.
as §3, §4, §5

[5] = tested on: pOBP, adult porcine OBP isoform; details: isothermal calorimetry, Burova et al., 1999, cited from earlier work
pOBP (adult porcine OBP) = details: cited from earlier work
[6] = biological target: mMUPII (mouse major urinary protein isoform II); details: cited from earlier work
[7] = biological target: T3, piglet OBP (pIOBP), Genbank AF436848, Uniprot Q8WMH1-1, SEQ ID NO: 3 (codon optimized) / SEQ ID NO: 4 (non-optimized), recombinant; assay: Competitive displacement of 1-AMA, piglet OBP; assay type: binding, pig (piglet/prepubertal)
Procedure: (§6) Competitive binding assays were done with 2 uM protein pre equilibrated with five fold 1-AMA concentration (10 uM). Fluorescence decay of the protein/1-AMA complex is expressed as a ratio of initial and final fluorescence against the total competitor concentration: (I−Imin)/(Io−Imin) where Io=fluorescence intensity of the protein/1-AMA complex, Imin=fluorescence intensity at saturation, and I=fluorescence intensity at a given competitor concentration.
as §3
(§7) The interaction of odorants with AMA complex was examined by monitoring the decrease in fluorescence intensity of protein/1-AMA complex upon the addition of competitor compounds.
(§8) In competitive binding assays, 1-AMA (10 μM) was equilibrated with protein (2 μM) at pH 7.2 50 mM sodium phosphate buffer and pH 3.0 50 mM citrate phosphate buffer, and titrated with increasing concentrations of odorants (0-100 μM) solubilized in 10% v/v methanol.
(§9) The affinity of OBPs for odorants was estimated by plotting the decrease of intensity of 1-AMA fluorescence at the emission maximum, (22). Odorant concentrations causing fluorescence decay to half-maximal intensity (IC50 values) were determined from the plot of (I−Imin)/(I0−Imin) against the competitor concentration; I0 is the maximum of fluorescence intensity of the protein/1-AMA complex; I is the fluorescence intensity after addition of an aliquot of competitor, and Imin the fluorescence intensity at saturating concentration of the competitor.

rat OBP = details: Nespoulous et al 2004; read-out: apparent Kd; cited from earlier work
[8] = biological target: T1, mouse MUPII (mMUPII), Genbank AJ309921, Uniprot P11589, SEQ ID NO: 5, recombinant; assay: Competitive displacement of 1-AMA, mouse MUPII; assay type: binding; details: for IC50: displacement of 1-AMA, 2 uM protein, 10 uM 1-AMA
Procedure: as §6, §3, §7, §8, §9

piglet OBP = biological target: T4, piglet OBP (Sus scrofa, UniProt P81245); assay: Competitive fluorescent binding assay: displacement of 1-AMA from piglet OBP by odorants IPMP and IBMP; parameters: species or system porcine; details: for Kd: calculated from IC50, read-out: Kd for piglet OBP
T4 construct: made in house; host or cells: Pichia pastoris GS115 (pPIC9, alpha-mating factor secretion signal)
T4 sequence (P81245 with tags, fused parts or gaps): T3 sequence (P81245 with tags, fused parts or gaps)
Procedure: as §7, §8, §9

rOBP-1F = details: cited from earlier work
[9] = biological target: T2, rat OBP1F (rat OBP variant 1F), recombinant; assay: Competitive displacement of 1-AMA, rat OBP-1F; assay type: binding; details: pH 7.2
Procedure: as §6, §3, §7, §8, §9

**Q.** For `Nc1cccc2cc3ccccc3cc12` [1-AMA, 1-aminoanthracene], which Kd ([1]; pH 3.0) is on record?
**A.** 3480 nM

**Q.** And the Kd ([1]; pH 4.0)?
**A.** 1970 nM

**Q.** And the Kd ([1]; pH 5.0)?
**A.** 1850 nM

**Q.** And the Kd ([1]; pH 7.2)?
**A.** 490 nM

**Q.** And the “binding capacity compared with pH 7.2” value ([1]; pH 3.0)?
**A.** less than halved

**Q.** And the “decrease in binding affinity compared with pH 7.2” value (“decrease in binding affinity” for short) ([1]; pH 3.0)?
**A.** 7 fold

**Q.** What about the “decrease in binding affinity” value ([1]; pH 4.0) of the same molecule?
**A.** about 4 fold

**Q.** What about the “decrease in binding affinity” value ([1]; pH 5.0) of the same molecule?
**A.** about 4 fold

**Q.** What about the Kd (rat OBP-1F) of the same molecule?
**A.** 600 nM

**Q.** And the Kd [2]?
**A.** 1200 to 1300 nM

**Q.** And the saturable binding ([3]; pH 3.0)?
**A.** saturable binding curve was not detected

**Q.** And the Kd ([3]; pH 5.0)?
**A.** 1700 nM

**Q.** And the Kd ([3]; pH 7.2)?
**A.** 1640 nM

**Q.** And the Kd ([4]; pH 3.0)?
**A.** 4300 nM

**Q.** What about the “decrease in binding affinity” value ([4]; pH 3.0) of the same molecule?
**A.** 3.4 fold

**Q.** And the “maximal binding capacity compared with pH 7.2” value ([4]; pH 3.0)?
**A.** approximately halved

**Q.** And the Kd ([4]; pH 4.0)?
**A.** 2660 nM

**Q.** What about the “decrease in binding affinity” value ([4]; pH 4.0) of the same molecule?
**A.** 2 fold

**Q.** What about the Kd ([4]; pH 5.0) of the same molecule?
**A.** 1450 nM

**Q.** What about the Kd ([4]; pH 7.2) of the same molecule?
**A.** 1260 nM

**Q.** Which “molar binding stoichiometry n” value ([5]; pH 3.5) does the source give for `COc1nccnc1CC(C)C` [IBMP, 2-isobutyl-3-methoxypyrazine] here?
**A.** 0.417

**Q.** What about the “molar binding stoichiometry n” value ([5]; pH 4.1) of the same molecule?
**A.** 1.080

**Q.** And the “affinity to IBMP” value ([5]; pH 6.6, pH 4.1 and pH 3.5)?
**A.** remained relatively unchanged

**Q.** What about the “molar binding stoichiometry n” value ([5]; pH 6.6) of the same molecule?
**A.** 1.220

**Q.** What about the Kd (pOBP (adult porcine OBP)) of the same molecule?
**A.** 500 to 900 nM

**Q.** What about the Kd [6] of the same molecule?
**A.** 940 nM

**Q.** And the Kd [7]?
**A.** 1000 nM

**Q.** What about the displacement of fluorescence ([7]; pH 3.0) of the same molecule?
**A.** complete displacement

**Q.** And the “displacement of 1-AMA fluorescence” value ([7]; pH 7.2)?
**A.** complete displacement

**Q.** And the Kd (rat OBP)?
**A.** 69 nM

**Q.** And the Kd ([8]; calculated from IC50, pH 3.0, read-out: Kd)?
**A.** 1080 nM

**Q.** And the Kd ([8]; calculated from IC50, pH 7.2, read-out: Kd)?
**A.** 480 nM

**Q.** What about the IC50 ([8]; pH 3.0) of the same molecule?
**A.** 3410 nM

**Q.** And the IC50 ([8]; pH 7.2)?
**A.** 8070 nM

**Q.** What about the displacement of fluorescence ([8]; pH 3.0) of the same molecule?
**A.** complete displacement

**Q.** What about the Kd ([8]; pH 3.0, read-out: apparent Kd) of the same molecule?
**A.** 1000 nM

**Q.** What about the “displacement of 1-AMA fluorescence” value ([8]; pH 7.2) of the same molecule?
**A.** complete displacement

**Q.** What about the Kd ([8]; pH 7.2, read-out: apparent Kd) of the same molecule?
**A.** 500 nM

**Q.** And the IC50 (piglet OBP; pH 3.0)?
**A.** 3650 nM

**Q.** And the “affinity for pIOBP, more strongly than IPMP” value (piglet OBP; pH 3.0)?
**A.** 1.6 fold

**Q.** What about the Kd (piglet OBP; pH 3.0) of the same molecule?
**A.** 1470 nM

**Q.** What about the IC50 (piglet OBP; pH 7.2) of the same molecule?
**A.** 6860 nM

**Q.** And the “affinity for pIOBP, more strongly than IPMP” value (piglet OBP; pH 7.2)?
**A.** about 5 fold

**Q.** And the Kd (piglet OBP; pH 7.2)?
**A.** 940 nM

**Q.** And the Kd (rOBP-1F)?
**A.** 69 nM

**Q.** What about the Kd ([9]; calculated from IC50) of the same molecule?
**A.** 43 nM

**Q.** What about the IC50 ([9]; displacement of 1-AMA, 2 uM protein, 10 uM 1-AMA) of the same molecule?
**A.** 250 nM

**Q.** And the “binding to rOBP-1F more strongly than to mMUPII” value [9]?
**A.** ~20 fold

**Q.** And the “binding to rOBP-1F more strongly than to pIOBP” value [9]?
**A.** about 10 fold

**Q.** What about the “displacement of 1-AMA fluorescence” value [9] of the same molecule?
**A.** complete displacement
